The source of these data is patent US7273717B2 (priority 2003, dated 2007).

The test system of assay [1] is GS-9005 hydrolase B. The class given is biochemical, human.
In assay [2] the target is GS-9005 hydrolase A. The class given is biochemical, human. To be noted: pH 6.5; read-out: Inhibition profile IC50, 9005 Hydrolase A.
[3] abbreviates: pH 6.5, read-out: Inhibition profile IC50, 9005 Hydrolase B.
Where [4] appears, read: read-out: concentration at which GS-9005 hydrolase B is inhibited by 50%.

Read-outs that look alike come from different tables or passages of the source. Peptide text beside a SMILES is read from it. * marks the point of attachment. Cbz = O=C(OCc1ccccc1)* Some results are limits rather than exact numbers.

Take `O=c1oc(Cl)c(Cl)c2ccccc12` [3,4 DCI, 3,4 dichloroisocoumarin]: in assay [1], the “inhibition of GS-9005 hydrolase B (in words)” value is on record as “inhibited”. The IC50 in assay [1] (setting [3]) is 4 µM; in assay [1] (setting [4]), around 4 µM; in assay [2], above 150 µM.
Take `CCOP(=O)(OCC)Oc1ccc([N+](=O)[O-])cc1` [paraoxon]: the IC50 in assay [1] (setting [3]) is 0.02 µM; in assay [1] (setting [4]) it was around 0.02 µM; in assay [2], 0.03 µM.
In the case of `O=C[C@@H]1CCCN1C(=O)[C@@H]1CCCN1C(=O)OCc1ccccc1` [Cbz-pro-pro-COH, Carboxybenzoyl-Pro-Pro-COH] (Cbz-Pro-Pro-aldehyde), the IC50 in assay [1] (setting [3]) and in assay [1] (setting [4]) was above 100 µM each time.
